Experimental data taken from patent US20220110916A1, “Antioxidant and Use Thereof” (Bioradical Research Institute Corp., priority 2019, published 2022).

How the values were obtained:
[1] = Water solubility noted at synthesis; assay type: physicochemical; details: crystal obtained in Example 1
Protocol: 3.58 g of 3-methyl-1-phenyl-5-pyrazolone (hereinafter, also referred to as “edaravone”), 2.59 g of malonaldehyde dianilide hydrochloride, and 20 ml of ethanol were added to a reactor and dissolved. To the obtained solution, 2.04 g of triethylamine and 0.4 ml of water were added and stirred for 1 hour at room temperature (about 25° C., hereinafter, the same applies). After the stirring, the resultant was further reacted for 1 hour at 50° C. After discharging the obtained reaction solution to 100 ml of 1N hydrochloric acid, the mixture was sufficiently stirred and the precipitate was filtered. The resulting cake was washed with water. The cake was added to 200 ml of an aqueous sodium hydroxide solution having a 1% by weight concentration and completely dissolved by heating with stirring. Next, the dissolved solution was stirred for 3 hours after cooling to room temperature. Then, the liquid containing the obtained precipitate was filtered, and then the cake was washed with water. […] Note that the melting point of ED2AP was 249° C., which was water-soluble.
3 ml of dimethylformamide was added to a reactor and the exterior of the reactor was cooled with ice water. 1.75 g of phosphorus oxychloride was slowly dropped into the reactor (Reaction Solution A). In another reactor, 1.78 g of edaravone was dissolved in 5 ml of dimethylformamide (Reaction Solution B). Under room temperature, the reaction solution B was slowly added to the reaction solution A, and the resulting mixture was allowed to react for 1 hour with the end of addition (Reaction Solution C) being a reference. In another reactor, 1.81 g of 3-methyl-1-phenyl-5-pyrazolone was added to 8 ml of chloroform and dissolved (Reaction Solution D). Under room temperature, the reaction solution C was slowly added to the reaction solution D, followed by stirring for 20 minutes and further stirring at 70° C. for 1 hour. To the resultant, 0.2 g of water was added and stirred for another 2 hours. The obtained reaction solution was discharged into 100 ml of water and extracted with a mixed solvent of toluene/ethyl acetate=1/1 (volume ratio). After condensation of the obtained extract, column purification was performed to obtain 2.92 g of yellow crystal of the compound of the formula (10) having the following physical properties.
1.00 g of edaravone, 0.72 g of paraformaldehyde, and 20 ml of formic acid were added to a reaction flask and stirred overnight for 20 hours at 70° C. The obtained reaction solution was discharged into 80 ml of water and extracted with a mixed solvent of toluene/ethyl acetate=1/1 (volume ratio). When the extract was condensed to about two-thirds, crystals were precipitated. Further, the resultant was cooled to room temperature, and sufficiently crystallized, and then filtered. The obtained cake was washed with toluene to obtain 0.88 g of pale yellow crystal of the compound of the formula (14) having the following physical properties.
In Example 1(1), synthesis was performed in the same manner as described above except that 3-methyl-1-ethyl-5-pyrazolone was used instead of edaravone to obtain red crystal of BisEp-C3 having the following physical properties. Note that BisEp-C3 was water-soluble.
In Example 1(2), synthesis was performed in the same manner as described above except that 3-methyl-1-ethyl-5-pyrazolone was used instead of edaravone to obtain yellow crystal of BisEp-C1 having the following physical properties. Note that BisEp-C1 was water-soluble.
In Example 1(3), synthesis was performed in the same manner as described above except that 3-methyl-1-ethyl-5-pyrazolone was used instead of edaravone, then the obtained reaction solution was condensed, and the resultant was subjected to column purification to obtain colorless crystal of BisEp-C1 (H2) having the following physical properties. Note that BisEp-C1 (H2) was water-soluble.

rat neuroid cells B50 [2] = assay: Alleviation of singlet oxygen (Rose Bengal + G-LED) cytotoxicity, Alamar Blue fluorescence; assay type: cell-based; details: for recovery of the fluorescence intensity (cellular activity): 0, 12.5, 25, 50, or 100 μmol/l, 200 nmol/l RB + G-LED 5 minutes, FIG. 3; for cytoprotective function compared with edaravone: B50 cells, RB + G-LED singlet oxygen
Protocol: Edaravone, ED2AP and BisEp-C3 were examined whether they had the function of alleviating neuronopathy. Specifically, singlet oxygen was generated by combining Rose Bengal (RB), which is a sensitizer, with green light (G-LED), and the function of alleviating the cytotoxicity of the generated singlet oxygen was examined with the cellular activity being an indicator.
First, rat neuroid cells B50 were cultured in 12-well dishes at 2×10^5 cells/well (medium: RPMI-1640 medium containing 5% FCS) overnight. After the culturing, the medium of each well was replaced with HBSS (1000 μl/well; phenol red free Ca+, Mg+) containing 200 nmol/l RB and edaravone, ED2AP, or BisEp-C3 having a predetermined concentration (0, 12.5, 25, 50, or 100 μmol/l). The dish was then irradiated with G-LED for 5 minutes to generate singlet oxygen. Thereafter, the medium of each well was replaced with 1000 μl of HBSS and Alamar Blue was added. The dish was then allowed to react for about 2 hours in an incubator at 37° C. and 5% CO2. After the reaction, fluorescence intensity (excitation wavelength: λ-560 nm, fluorescence wavelength: λ-595 nm) was measured with a plate reader (infinite200, Tecan Trading AG). In this experimental system, the higher the cellular activity, the more Alamar Blue is taken up and the higher the fluorescence intensity. As a control, fluorescence intensity was measured in the same manner except that sodium azide (Azide, NaN3) was added instead of the compounds so as to achieve a concentration of 4 mmol/l. As a negative control (NC), fluorescence intensity was measured in the same manner except that RB was not added. The relative value of the fluorescence intensity in the sample to which each compound was added was calculated with the fluorescence intensity of the negative control being 100.

rat neuroid cells B50 [3] = assay: Toxicity evaluation on byproducts after reaction with singlet oxygen, cell viability; assay type: cell-based; details: 50, 100, or 200 μmol/l reacted with RB + G-LED 525 nm in cell-free system; FIG. 6
Protocol: In a cell-free system, the RB was added to media (50% FCS-containing RPMI-1640 media) containing edaravone, ED2AP, and BisEp-C3 having a predetermined concentration (50, 100, or 200 μmol/l) and then irradiated with LED (G-LED) at 525 nm to generate singlet oxygen, whereby reacting each compound with singlet oxygen. The cell viability was measured in the same manner as in Example 7(1), except that the culture solution after the reaction was used as a medium of the neuroid cell B50. As a negative control (NC), the cell viability was measured in the same manner except that each compound and […] were not added in the cell-free system. Further, as a control (RB), the cell viability was measured in the same manner except that each compound was not added and only […] was added in the cell-free system.

solubility in water [1] | SMILES | recovery of the fluorescence intensity (cellular activity) (rat neuroid cells B50 [2]) | cytoprotective function compared with edaravone (rat neuroid cells B50 [2]) | cytotoxicity of the byproducts after reaction with singlet oxygen (cell viability) (rat neuroid cells B50 [3])
water-soluble | CCN1N=C(C)/C(=C\C=C\c2c(C)nn(CC)c2O)C1=O (racemic) [BisEp-C3, 2,4-dihydro-4-[3-(1-ethyl-5-hydroxy-3-methyl-1H-pyrazol-4-yl)-2-propen-1-ylidene]-2-ethyl-5-methyl-3H-pyrazol-3-one] | recovered in a concentration-dependent manner | higher than that of edaravone | not cytotoxic at any concentration
water-soluble | CC1=NN(c2ccccc2)C(=O)/C1=C/C=C/c1c(C)nn(-c2ccccc2)c1O (racemic) [ED2AP, 2,4-dihydro-4-[3-(5-hydroxy-3-methyl-1-phenyl-1H-pyrazol-4-yl)-2-propen-1-ylidene]-5-methyl-2-phenyl-3H-pyrazol-3-one] | recovered in a concentration-dependent manner | higher than that of edaravone | not cytotoxic at any concentration
